Data as given in paper PMC7782499, “Progerinin, an optimized progerin-lamin A binding inhibitor, ameliorates premature senescence phenotypes of Hutchinson-Gilford progeria syndrome” (Communications Biology, 2021).
Several values for one entry are separate records, joined by “and”; a condition that tells them apart may be missing. Identical values can stand only once.

What was measured:
[1] = system: Lmna G609G/G609G mouse; assay: Body weight of Lmna G609G/G609G mice (ratio, week 4 = 1); assay type: in vivo; details: for body weight: IP injection
Description: Fig. 3 In vivo favorable effect of SLC-D011. A Gross morphology of Lmna^G609G/G609G mice (10 weeks old) was ameliorated after injection with SLC-D011. At the same age, the experimental group (D011) of mice were larger than vehicle-injected control (Con) subjects regardless of gender. B, C SLC-D011 increases body weight B and extends life span C of Lmna^G609G/G609G progeria model mouse (Con: n = 8; SLC-D011: n = 8). Compared with 14.8 weeks of average (ave) life span with maximum (max) life span of 15.5 weeks, 20 mg/kg of intraperitoneal (i.p) injection (twice a week) of SLC-D011 could extend the life span upto 19 weeks (max = 21 weeks). Lmna^G609G/G609G mice were injected with SLC-D011 from age of 5-week old, *p < 0.05. D Gross morphology of SLC-D011 injected Lmna^G609G/+ mouse. […] E SLC-D011 increases body weights of Lmna^G609G/+ mice (Con: n = 10; SLC-D011: n = 11), *p < 0.05. F Favorable effect of SLC-D011 on life span of Lmna^G609G/+ mice. Compared with vehicle-injected control group (ave = 46.7 weeks and max = 48 weeks), SLC-D011 treatment obviously extended the average life span to 63 weeks (max = 64 weeks). The injection was started from 32 weeks old, **p < 0.001. “Con” means vehicle (a solvent composed of DMSO and PBS)-injected mouse group. TEXT PRINTED IN THE PICTURE: (C) D011: Kaplan-Meier survival curve in Lmna^G609G/G609G: Ave=19; Kaplan-Meier survival curve in Lmna^G609G/G609G: Max=21 | (F) D011: Kaplan-Meier survival curve in Lmna^G609G/+: Ave=63; Kaplan-Meier survival curve in Lmna^G609G/+: Max=64 DOUBTS OF THE COPYIST ABOUT THIS PICTURE: Panels C and F: the Ave/Max labels are not printed with a group name. They are assigned to D011 (solid curve) or Con (dashed curve) only by their position beside the curves. / Panel C Ave=14.8, Max=15.5 and panel F Ave=46.7, Max=48 stand beside the dashed Con curve. They are left out because Con is the control group, not a substance. / No unit is printed with the Ave/Max values. Only the axis reads Age (weeks).
Fig. 4 Oral administration of SLC-D011 suppresses premature aging features. A Gross morphology of SLC-D011-treated (D011) mice at 8 weeks old. Body size of treated mouse was apparently larger than that of the untreated control (Con) mouse. B Oral administration of SLC-D011 increases body weights of Lmna^G609G/G609G mice. Compared with untreated control group, body weight of treated mouse was increased by ~35%, *p < 0.05. C Oral administration of SLC-D011 extends the life span of Lmna^G609G/G609G mouse. SLC-D011 in monoolein-based solution was treated by oral gavage (50 mg/kg, daily) from 5 weeks old. […] E Grip test of Lmna^G609G/+ mice at 41-week-old was performed after administration of SLC-D011 for 6 weeks. The test was repeated 10 times for each mouse (n > 4), **p < 0.001. Data are presented as mean ± SD. F Electrocardiographic analysis of Lmna^G609G/+ mice (untreated: n = 4; SLC-D011: n = 4) and Lmna^+/+ mice (n = 3) after treatment with SLC-D011 for 6 weeks (unpaired t test). Heart rate is shown as beats per minute (bpm). G Dental abnormalities in Lmna^G609G/+ mice (untreated: n = 4; SLC-D011: n = 5) and Lmna^+/+ mice (n = 4). […] Lower incisors of Lmna^G609G transgenic mice grow toward the palate because of malocclusion. Oral administration of SLC-D011 for 6 weeks alleviates dental abnormalities. H Anti-aging effects of single treatment of SLC-D011 or lonafarnib were measured in HGPS patients-derived cells (AG11513, AG03199, AG11498, and AG03198, Coriell Cell Repositories). Single treatment of SLC-D011, compared to lonafarnib, reduced the expression of progerin but induced the expression of H3K9me3 and cyclin B1 in HGPS cells more effectively. HGPS patients-derived cells were treated with SLC-D011 (500 nM) or lonafarnib (500 nM) for 3 days. I Scheme of interaction between lamin A and progerin. SLC-D011 interrupts the interaction between lamin A and progerin through direct binding to the C-terminal region of progerin. […]

[2] = system: Lmna G609G/+ mouse; assay: Radiological examination (kyphosis index, incisors); assay type: in vivo; details: Lmna G609G/+ mice
Procedure: The radiographic study was performed in anaesthetized living mice using a human radiographic system (College of Veterinary Medicine, Gyeongsang National University, Korea). A single radiograph of right lateral view of the whole body was obtained. Age-matched (at 41 weeks old) Lmna^+/+ mice, untreated Lamn^G609G/+ mice, and progerinin-treated Lmna^G609G/+ mice were radiographed. The images were recorded in DICOM format and then transferred to a personal computer. KI[28],[30] and abnormalities of the incisors were evaluated. Data processing and analysis were performed using a RadiAnt DICOM system in Institute of Animal Medicine, College of Veterinary Medicine, Gyeongsang National University (Jinju, Korea). […]
LmnaG609G transgenic mice at 41 weeks of age. Abundant adipose tissues are present in abdomens of
Lmna+/+ and progerin- treated LmnaG609G/+ mice compared to untreated LmnaG609G/+ mice. Kyphosis Index
(KI) index was accessed after 8-week treatment.
untreated LmnaG609G/+, and D011- treated LmnaG609G/+ mice at 41 weeks of age (unpaired t-test), *p < 0.05.
Severity of kyphosis depends on genotype and treatment of SLC-D011. H. Gross morphology of age-

## CC1(C)Oc2cc3oc(=O)ccc3cc2C[C@@H]1OC/C=C/c1ccccc1 [SLC-D011]
[1]; after week 5
  body weight: 1.167 and 1.25 and 1.182 and 1
[1]; after week 7
  body weight: 1.333 and 1.417 and 1.273 and 1.077
[1]; after week 8
  body weight: 1.5 and 1.25 and 1.273 and 1 and 1.462
[1]; after week 9
  body weight: 1.417 and 1.25 and 1.273 and 1 and 1.385
[1]; after week 10
  body weight: 1.333 and 1.167 and 1.182 and 1
[1]; after week 13
  body weight: 1.167 and 0.8333 and 1.091 and 0.8462
[1]; after week 15
  body weight: 1 and 0.6667 and 0.9231
[1]; after week 16
  body weight: 1 and 0.8182 and 0.8462
[1]; after week 17
  body weight: 0.8333 and 0.8182 and 0.7692
[1]; column after week 4
  body weight: 1.083 and 1
[1]; column after week 6
  body weight: 1.25 and 1.333 and 1.273 and 1.077
[1]; column after week 11
  body weight: 1.333 and 1.083 and 1.182 and 1
[1]; column after week 12
  body weight: 1.25 and 0.9167 and 1.182 and 0.9231
[1]; column after week 14
  body weight: 1.083 and 0.75 and 1.091 and 0.9231
[1]; column after week 18
  body weight: 0.8333 and 0.7692
[1]; column after week 19
  body weight: 0.75
[1]; week 5
  body weight: 1.167 and 1.091 and 1
[1]; week 6
  body weight: 1.167 and 1.333 and 1.273 and 1
[1]; week 7
  body weight: 1.333 and 1.417 and 1.273 and 1
[1]; week 8
  body weight: 1.417 and 1.273 and 1.077 and 1.385
[1]; week 10
  body weight: 1.417 and 1.167 and 1.273 and 1 and 1.385
[1]; week 11
  body weight: 1.333 and 1.083 and 1.182 and 1.077
[1]; week 12
  body weight: 1.25 and 1 and 1.182 and 0.9231
[1]; week 13
  body weight: 1.25 and 0.8333 and 1.182 and 0.9231
[1]; week 15
  body weight: 1.083 and 0.75 and 1.091 and 0.8462
[1]; week 16
  body weight: 1 and 0.8462
[1]; week 17
  body weight: 0.8333 and 0.8182 and 0.8462
[1]; week 18
  body weight: 0.8333 and 0.7692
[1]; week 19
  body weight: 0.8333
[1]; oral administration
  Increase of body weight compared with untreated control: ~ 35%
[2]; 41 weeks of age
  Abnormalities of incisors: ameliorated these abnormalities
  Kyphosis index (KI): recovered
[2]; Ave
  Kyphosis index: 4.2583
[2]; individual mouse
  Kyphosis index: 3.759 and 3.649 and 5.045 and 4.58
